This passage reports TGI results from PubChem BioAssay (NCI).

Among the test systems are 786-0 renal; A549 NSCLC; ACHN renal; K-562 leukemia; NCI-H460 lung; SK-OV-3 ovarian; SR leukemia; TK-10 renal; UACC-257 melanoma; UACC-62 melanoma; CCRF-CEM leukemia.
Test in all cases: NCI anticancer screen, dose series, 48 h

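Five compound concentrations were applied to cells in 96-well plates for 48 hours; endpoints were derived by simple linear interpolation of the resulting dose-response curve. TGI marks complete inhibition of growth.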

In the case of `COc1cc(-c2cc(OC)c(OC)c3ccc(Br)cc23)c2cc(Br)ccc2c1OC`, the TGI was 34.2 µM in the experiment on 786-0 renal; 45.2 µM in the experiment with A549 NSCLC; 51.4 µM in the experiment on ACHN renal; 77.8 µM in the experiment on K-562 leukemia; over 100 µM in the experiment on NCI-H460 lung; 71.8 µM in the experiment on SK-OV-3 ovarian. The TGI with SR leukemia worked out at 86 µM; with TK-10 renal it was 52.7 µM; in the experiment with UACC-257 melanoma, 92.1 µM; with UACC-62 melanoma it was 47.7 µM.

`CC(C)C(Nc1c2ccccc2[n+](C)c2ccccc12)C(=O)O` (stereo unspecified): the TGI in the experiment with 786-0 renal, in the experiment on A549 NSCLC, in the experiment with ACHN renal, in the experiment with K-562 leukemia, in the experiment on NCI-H460 lung and in the experiment with SK-OV-3 ovarian was over 100 µM in each case. For the same molecule, the TGI in the experiment on SR leukemia, with TK-10 renal, in the experiment with UACC-257 melanoma and in the experiment on UACC-62 melanoma was over 100 µM in each case.

Regarding `CCOC(=O)/C(=C/c1cn(C(C)=O)c2ccccc12)P(=O)(OC)OC`, the TGI was over 100 µM in the experiment with A549 NSCLC; over 100 µM in the experiment on ACHN renal; 68.1 µM in the experiment with CCRF-CEM leukemia; over 100 µM in the experiment with K-562 leukemia; 79.7 µM in the experiment with NCI-H460 lung; over 100 µM in the experiment on SK-OV-3 ovarian. The TGI is 73.8 µM with SR leukemia, over 100 µM in the experiment with TK-10 renal and 41.5 µM in the experiment on UACC-257 melanoma.

With `Clc1ccc(-c2nn3c(COc4ccc(OCc5nnc6sc(-c7ccc(Cl)cc7)nn56)c(Cl)c4)nnc3s2)cc1`, the TGI is 26.6 µM with 786-0 renal; 90.2 µM in the experiment with A549 NSCLC; over 100 µM in the experiment with ACHN renal; over 100 µM in the experiment with K-562 leukemia; over 100 µM with NCI-H460 lung; over 100 µM in the experiment on SK-OV-3 ovarian. Besides, the TGI in the experiment on SR leukemia is 61.4 µM; in the experiment with TK-10 renal, 45.7 µM; in the experiment with UACC-257 melanoma, over 100 µM; in the experiment on UACC-62 melanoma, over 100 µM.

In the case of `N#Cc1nc(-c2ccsc2)oc1N`, the TGI in the experiment on 786-0 renal, in the experiment with A549 NSCLC, in the experiment on ACHN renal, in the experiment with CCRF-CEM leukemia, in the experiment with K-562 leukemia and in the experiment on SK-OV-3 ovarian was over 100 µM in each case. Besides, the TGI in the experiment on SR leukemia, with TK-10 renal, in the experiment on UACC-257 melanoma and in the experiment with UACC-62 melanoma was over 100 µM in each case.

`CCCCCCCCCCCCCCCC[N+](C)(C)CCl`: the TGI was 3.31 µM in the experiment on 786-0 renal; 22.3 µM with A549 NSCLC; 8.36 µM in the experiment on ACHN renal; 4.74 µM in the experiment on NCI-H460 lung; 27.7 µM in the experiment on SK-OV-3 ovarian; 6.41 µM in the experiment with TK-10 renal. The values for the TGI in the experiment with UACC-257 melanoma and in the experiment with UACC-62 melanoma were 21.1 µM and 6.46 µM, respectively.

Consider `Cc1cc(C)c(C2=NO[C@@H]3[C@H]2C(=O)C=C2N(Cc4ccccc4)CCO[C@@]23O)c(C)c1`, for which the TGI with A549 NSCLC, in the experiment on CCRF-CEM leukemia, in the experiment with K-562 leukemia, in the experiment on NCI-H460 lung, in the experiment with SK-OV-3 ovarian and in the experiment with UACC-257 melanoma was over 100 µM each time. Besides, the TGI with UACC-62 melanoma is over 100 µM.

Consider `COc1ccc(/C=C2\N=C3N(Cc4ccccc4)C=C(N)N3C2=O)cc1`, for which the TGI in the experiment with 786-0 renal, in the experiment on A549 NSCLC, in the experiment on ACHN renal, with CCRF-CEM leukemia, with K-562 leukemia and in the experiment with NCI-H460 lung was over 100 µM throughout. Further, the TGI with SK-OV-3 ovarian, with TK-10 renal, with UACC-257 melanoma and with UACC-62 melanoma was over 100 µM each time.

With `COc1cc(C2C3=C(NC(=O)C2C#N)c2ccc4ccccc4c2OCC3)cc(OC)c1OC` (stereo unspecified), the TGI in the experiment with 786-0 renal is over 100 µM; in the experiment on A549 NSCLC it was over 100 µM; in the experiment on ACHN renal, 30.2 µM; in the experiment on CCRF-CEM leukemia, over 100 µM; in the experiment with K-562 leukemia, over 100 µM; with NCI-H460 lung, over 100 µM. Also, the TGI in the experiment with SK-OV-3 ovarian was 62.4 µM; in the experiment on TK-10 renal, over 100 µM; in the experiment on UACC-257 melanoma it was over 100 µM.

Turning to `COc1cc(/C=C2\C(=O)N(c3ccc(Cl)cc3)C(c3ccccc3)S2(=O)=O)cc(OC)c1OC` (stereo unspecified), the TGI in the experiment on 786-0 renal is over 100 µM; with A549 NSCLC, over 100 µM; in the experiment on ACHN renal it was over 100 µM; with CCRF-CEM leukemia, over 70.7 µM; with K-562 leukemia, over 100 µM; in the experiment on NCI-H460 lung, over 100 µM. In addition, the TGI is over 100 µM in the experiment on SK-OV-3 ovarian, over 100 µM in the experiment on TK-10 renal, over 100 µM in the experiment on UACC-257 melanoma and over 63.6 µM in the experiment with UACC-62 melanoma.

For the molecule `Nc1ncnc2c1ncn2C1C(O)C=C(CO)C1O` (stereo unspecified), the TGI in the experiment on A549 NSCLC, with NCI-H460 lung, in the experiment on SK-OV-3 ovarian and with UACC-62 melanoma was over 625 µM throughout.

Take `O=C(Nc1nnc(-c2ccccc2)o1)C(SC(=S)N1CCCC1)c1ccccc1` (stereo unspecified): the TGI with 786-0 renal was over 100 µM; in the experiment with A549 NSCLC, over 100 µM; with ACHN renal it was over 100 µM; with CCRF-CEM leukemia it was 71.4 µM; in the experiment with K-562 leukemia, over 100 µM; in the experiment with NCI-H460 lung, 62.3 µM. For the same molecule, the TGI in the experiment on SK-OV-3 ovarian, in the experiment on SR leukemia, in the experiment with TK-10 renal and in the experiment on UACC-257 melanoma was over 100 µM each time.

As to `Cc1cc(C)n(C(C)(C(=O)Cc2ccccc2)n2nc(C)cc2C)n1`, the TGI in the experiment on 786-0 renal, in the experiment on A549 NSCLC, in the experiment on ACHN renal, in the experiment with K-562 leukemia, in the experiment on NCI-H460 lung and in the experiment on SK-OV-3 ovarian was over 100 µM in each case. The TGI with SR leukemia, in the experiment on TK-10 renal and in the experiment with UACC-62 melanoma was over 100 µM each time.

In the case of `CCOC(=O)CSc1nc(-c2ccc(Cl)cc2)c(C#N)c(=O)[nH]1`, the TGI in the experiment on 786-0 renal is over 100 µM; in the experiment on A549 NSCLC it was over 100 µM; with ACHN renal, over 100 µM; in the experiment with CCRF-CEM leukemia, 89 µM; in the experiment on K-562 leukemia, over 100 µM; in the experiment with NCI-H460 lung it was over 100 µM. Besides, the TGI in the experiment on SK-OV-3 ovarian, in the experiment with TK-10 renal, with UACC-257 melanoma and with UACC-62 melanoma was over 100 µM throughout.
